Reference: patent publication US20080280764A1, “Method of Desiccating and/or Defoliating Glyphosate Resistant Crops” (priority 2005, published 2008)

Tested on: Glyphosate resistant cotton
Assay: Field test: defoliation and desiccation of glyphosate resistant cotton
Type: in vivo
Settings: post-emergence spray, scale 0-100% vs untreated plots
Description: In the examples below, the value E which is to be expected if the activity of the individual compounds is just additive was calculated using the method of S. R. Colby (1967) “Calculating synergistic and antagonistic responses of herbicide combinations”, Weeds 15, p. 22 ff.
where X=effect in percent using active compound A at an application rate a; Y=effect in percent using active compound B at an application rate b; E=expected effect (in %) of A+B at application rates a+b.
If the experimentally determined value is higher than the value E calculated according to Colby's equation, a synergistic effect is present.
The phenyluracils I and/or the other active ingredients according to the present invention were formulated in a suitable way, either separately or in mixture, e.g. as emulsifiable concentrates (EC), soluble concentrates (SL), suspo-emulsions (SE), suspension concentrates (SC) or water-dispersible granules (WG). The formulation(s) were suspended or emulsified in water as a distribution medium immediately prior to spraying. Afterwards, the aqueous mixture was evenly sprayed on the test plots by means of finely distributing nozzles.
The test plots of rows of fully mature crop plants at the beginning of leaf fall were of uniform size (typically between 14 and 37 square meters, each) and the distribution of treated and untreated plots was organized according to a randomised bloc design. The plots were treated post-emergence, i.e. the aqueous mixture as described above was sprayed on the crop plants.
The evaluation of the defoliation or desiccation caused by the phenyluracils I and/or the other active ingredients according to the present invention was carried out using a scale from 0 to 100%, compared to the untreated control plots. Here, 0 means no defoliation or desiccation and 100 means complete defoliation of the crop plants, or complete desiccation of the leaves of the crop plant.
Defoliation and Desiccation of Glyphosate Resistant Cotton by the Phenyluracil 1.7 Alone as Well as by a Mixture of the Phenyluracil 1.7 and Glyphosate; Field Test
In this example, glyphosate (isopropylammonium salt) was formulated as a 360 g/l SL and Phenyluracil 1.7 as a 120 g/l EC. Prior to application, the formulated active ingredients were tank-mixed with an aqueous 140 l/ha spray solution which contained, in addition, 10 g/l of Agridex.

[1] = use rate Phenyluracil I.7 12.5 g/ha

SMILES | Glyphosate resistant cotton defoliation at 4 DAT (% defoliation), Found (use rate glyphosate 840 g/ha) [%] | Glyphosate resistant cotton desiccation at 4 DAT (% desiccation), Found (use rate glyphosate 840 g/ha) [%] | Glyphosate resistant cotton defoliation at 4 DAT (% defoliation), Found [1] [%] | Glyphosate resistant cotton desiccation at 4 DAT (% desiccation), Found [1] [%]
O=C(O)CNCP(=O)(O)O [Glyphosate, glyphosate] | 0 | 3 |  | 
CC(C)N(C)S(=O)(=O)NC(=O)c1cc(-n2c(=O)cc(C(F)(F)F)n(C)c2=O)c(F)cc1Cl [I.7] |  |  | 13 | 63
